From the supplement of paper PMC10307832 come the findings set out here.

Holding throughout (test): relative viability (nuclei count vs DMSO), 5 days (fraction); higher = more cells survive
Compound in test [1]: COc1cc2nc(N3CCCN(C)CC3)nc(NC3CCN(Cc4ccccc4)CC3)c2cc1OC
In a few lines: (§1)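 For viability, nuclei in each treated well were divided by nuclei in vehicle wells and the median across plates was taken. Lung cancer cell lines in 1536-well plates were pinned with five library-drug doses (not always all listed) spaced by √10, cultured 5 days without medium change, and imaged at 4× after Hoechst staining, with plates passing only at control CV below 25% and at least one doubling.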

Compound in a further test: Cc1cc([C@@H](C)Nc2ccccc2C(=O)O)c2nc(N3CCOCC3)cc(=O)n2c1 [AZD6482]
A digest of the protocol: as §1

Compound in test [2]: COc1cc2nc(N3CCCN(C)CC3)nc(NC3CCN(Cc4ccccc4)CC3)c2cc1OC + Cc1nc(NC(=O)N2CCC[C@H]2C(N)=O)sc1-c1ccnc(C(C)(C)C(F)(F)F)c1 [Alpelisib] (partner 2 µM)
In a few lines: (§2)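 The day after seeding in 1536-well plates, lung cancer cell lines were treated by pin tool with a single drug, or with a fixed anchor-drug dose together with five library-drug doses (not always all listed) in √10 steps. After 5 days, a combined fix-and-stain solution (final 0.05% Triton X-100, 1% formaldehyde, 1 ug/ml Hoechst) was added. Nuclei counted on 4× images gave relative viability as treated counts over vehicle counts, reported as the median of duplicate plates.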

Compound in the test “AZD6482 + Pemetrexed”: Cc1cc([C@@H](C)Nc2ccccc2C(=O)O)c2nc(N3CCOCC3)cc(=O)n2c1 [AZD6482] + Nc1nc2[nH]cc(CCc3ccc(C(=O)N[C@@H](CCC(=O)O)C(=O)O)cc3)c2c(=O)[nH]1 [Pemetrexed] (partner 0.2 µM)
A digest of the protocol:
as §2

As to EKVX, the relative viability is 0.953 in test [1] (0.2 µM); 1.04 in test [1] (0.6325 µM); 0.962 in test [1] (2 µM); 0.954 in test [1] (6.325 µM); 0.813 with AZD6482 (0.08 µM); 0.819 with AZD6482 (0.253 µM). Moreover, the relative viability in the test with AZD6482 (0.8 µM) came to 0.832; with AZD6482 (2.53 µM), 0.549; in the test with AZD6482 (8 µM), 0.654; in test [2] (first compound 0.2 µM), 0.918; in test [2] (first compound 0.6325 µM) it was 0.833; in test [2] (first compound 2 µM) it was 0.92. Moreover, the relative viability was determined as 0.784 in test [2] (first compound 6.325 µM); 0.368 with AZD6482 + Pemetrexed (first compound 0.08 µM); 0.373 with AZD6482 + Pemetrexed (first compound 0.253 µM); 0.317 with AZD6482 + Pemetrexed (first compound 0.8 µM); 0.265 with AZD6482 + Pemetrexed (first compound 2.53 µM); 0.348 with AZD6482 + Pemetrexed (first compound 8 µM).

Turning to EMC-BAC-2, the relative viability in test [1] (0.2 µM) stood at 1.14; in test [1] (0.6325 µM), 0.981; in test [1] (2 µM), 0.996; in test [1] (6.325 µM), 1.04; with AZD6482 (0.08 µM), 0.976; in the test with AZD6482 (0.253 µM), 0.898. Besides, the relative viability stood at 1.01 with AZD6482 (0.8 µM); 0.722 in the test with AZD6482 (2.53 µM); 0.748 in the test with AZD6482 (8 µM); 0.765 in test [2] (first compound 0.2 µM); 0.69 in test [2] (first compound 0.6325 µM); 0.784 in test [2] (first compound 2 µM). Further, the relative viability turned out to be 0.77 in test [2] (first compound 6.325 µM); 0.415 with AZD6482 + Pemetrexed (first compound 0.08 µM); 0.45 with AZD6482 + Pemetrexed (first compound 0.253 µM); 0.438 with AZD6482 + Pemetrexed (first compound 0.8 µM); 0.414 with AZD6482 + Pemetrexed (first compound 2.53 µM); 0.413 with AZD6482 + Pemetrexed (first compound 8 µM).

As to EPLC-272H, the relative viability in test [1] (0.2 µM) came to 0.918; in test [1] (0.6325 µM), 1; in test [1] (2 µM), 1.2; in test [1] (6.325 µM), 0.783; with AZD6482 (0.08 µM) it was 0.778; with AZD6482 (0.253 µM), 0.71. Also, the relative viability turned out to be 0.888 in the test with AZD6482 (0.8 µM); 0.535 in the test with AZD6482 (2.53 µM); 0.596 with AZD6482 (8 µM); 0.952 in test [2] (first compound 0.2 µM); 0.904 in test [2] (first compound 0.6325 µM); 1.05 in test [2] (first compound 2 µM). Also, the relative viability came to 0.912 in test [2] (first compound 6.325 µM); 0.24 with AZD6482 + Pemetrexed (first compound 0.08 µM); 0.382 in the test with AZD6482 + Pemetrexed (first compound 0.253 µM); 0.383 in the test with AZD6482 + Pemetrexed (first compound 0.8 µM); 0.424 in the test with AZD6482 + Pemetrexed (first compound 2.53 µM); 0.269 with AZD6482 + Pemetrexed (first compound 8 µM).

For the cell line H3255, the relative viability came out at 0.915 in test [1] (0.2 µM); 0.986 in test [1] (0.6325 µM); 1.1 in test [1] (2 µM); 0.961 in test [1] (6.325 µM); 0.996 with AZD6482 (0.08 µM); 0.918 in the test with AZD6482 (0.253 µM). The relative viability in the test with AZD6482 (0.8 µM) was 0.979; in the test with AZD6482 (2.53 µM), 0.688; with AZD6482 (8 µM), 0.835; in test [2] (first compound 0.2 µM) it was 0.632; in test [2] (first compound 0.6325 µM), 0.852; in test [2] (first compound 2 µM), 0.86. The relative viability in test [2] (first compound 6.325 µM) amounted to 0.523; in the test with AZD6482 + Pemetrexed (first compound 0.08 µM) it was 0.535; with AZD6482 + Pemetrexed (first compound 0.253 µM), 0.577; with AZD6482 + Pemetrexed (first compound 0.8 µM), 0.583; with AZD6482 + Pemetrexed (first compound 2.53 µM), 0.464; with AZD6482 + Pemetrexed (first compound 8 µM), 0.507.

Consider HARA, for which the relative viability was 0.895 in test [1] (0.2 µM); 1.13 in test [1] (0.6325 µM); 1.08 in test [1] (2 µM); 0.919 in test [1] (6.325 µM); 0.844 with AZD6482 (0.08 µM); 0.978 in the test with AZD6482 (0.253 µM). In addition, the relative viability turned out to be 1.13 with AZD6482 (0.8 µM); 0.782 in the test with AZD6482 (2.53 µM); 0.875 with AZD6482 (8 µM); 0.798 in test [2] (first compound 0.2 µM); 0.823 in test [2] (first compound 0.6325 µM); 0.858 in test [2] (first compound 2 µM). The relative viability in test [2] (first compound 6.325 µM) worked out at 0.87; with AZD6482 + Pemetrexed (first compound 0.08 µM), 0.217; in the test with AZD6482 + Pemetrexed (first compound 0.253 µM) it was 0.241; with AZD6482 + Pemetrexed (first compound 0.8 µM), 0.278; with AZD6482 + Pemetrexed (first compound 2.53 µM), 0.254; in the test with AZD6482 + Pemetrexed (first compound 8 µM), 0.253.

With HCC-15, the relative viability in test [1] (0.2 µM) was determined as 0.985; in test [1] (0.6325 µM) it was 0.977; in test [1] (2 µM), 1.06; in test [1] (6.325 µM), 0.862; with AZD6482 (0.08 µM), 1.03; in the test with AZD6482 (0.253 µM), 0.962. Also, the relative viability with AZD6482 (0.8 µM) was determined as 1.04; in the test with AZD6482 (2.53 µM), 0.857; in the test with AZD6482 (8 µM), 0.945; in test [2] (first compound 0.2 µM) it was 0.886; in test [2] (first compound 0.6325 µM) it was 0.842; in test [2] (first compound 2 µM), 0.875. Moreover, the relative viability in test [2] (first compound 6.325 µM) came out at 0.687; with AZD6482 + Pemetrexed (first compound 0.08 µM), 0.208; with AZD6482 + Pemetrexed (first compound 0.253 µM) it was 0.231; with AZD6482 + Pemetrexed (first compound 0.8 µM) it was 0.244; with AZD6482 + Pemetrexed (first compound 2.53 µM), 0.228; in the test with AZD6482 + Pemetrexed (first compound 8 µM), 0.212.

As to HCC-44, the relative viability is 0.98 in test [1] (0.2 µM); 0.996 in test [1] (0.6325 µM); 0.998 in test [1] (2 µM); 0.981 in test [1] (6.325 µM); 0.873 with AZD6482 (0.08 µM); 0.971 with AZD6482 (0.253 µM). Also, the relative viability was 1 in the test with AZD6482 (0.8 µM); 1.05 with AZD6482 (2.53 µM); 1.03 in the test with AZD6482 (8 µM); 0.832 in test [2] (first compound 0.2 µM); 0.748 in test [2] (first compound 0.6325 µM); 0.841 in test [2] (first compound 2 µM). Further, the relative viability in test [2] (first compound 6.325 µM) came out at 0.746; with AZD6482 + Pemetrexed (first compound 0.08 µM), 0.669; with AZD6482 + Pemetrexed (first compound 0.253 µM), 0.661; with AZD6482 + Pemetrexed (first compound 0.8 µM), 0.763; with AZD6482 + Pemetrexed (first compound 2.53 µM) it was 0.741; with AZD6482 + Pemetrexed (first compound 8 µM), 0.831.

In the case of HCC-78, the relative viability in test [1] (0.2 µM) was 0.937; in test [1] (0.6325 µM), 1.04; in test [1] (2 µM), 1.08; in test [1] (6.325 µM), 1.02; with AZD6482 (0.08 µM), 0.749; with AZD6482 (0.253 µM) it was 0.622. The relative viability with AZD6482 (0.8 µM) stood at 0.632; in the test with AZD6482 (2.53 µM), 0.372; with AZD6482 (8 µM) it was 0.405; in test [2] (first compound 0.2 µM) it was 0.354; in test [2] (first compound 0.6325 µM), 0.364; in test [2] (first compound 2 µM), 0.297. The relative viability amounted to 0.251 in test [2] (first compound 6.325 µM); 0.87 with AZD6482 + Pemetrexed (first compound 0.08 µM); 0.857 with AZD6482 + Pemetrexed (first compound 0.253 µM); 0.926 with AZD6482 + Pemetrexed (first compound 0.8 µM); 0.862 with AZD6482 + Pemetrexed (first compound 2.53 µM); 0.953 with AZD6482 + Pemetrexed (first compound 8 µM).
